By EC50 is commonly meant the concentration at which the effect is half-maximal. The IC50 is the concentration at which inhibition is half-maximal.

Several values for one entry are separate records, joined by “and”; a condition that tells them apart may be missing. Equal values may be shown once.

Here are results for three molecules from patent US20240083839A1, “COMPOSITIONS AND METHODS FOR TREATING NEURODEGENERATIVE DISEASES AND DISORDERS” (The Regents of the University of California, priority 2020, published 2024).

Series [1] concerns SirT1 levels in N2a-E4 cells. Put plainly: SirT1 levels by AlphaLISA in ApoE4-transfected N2a cells. The series is classed as cell-based, murine. An outline of the steps:
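SirT1 enhancers screened by AlphaLISA of SirT1 protein in murine N2a neuroblastoma cells stably transfected with ApoE4. E4-AD mice dosed orally at 40 mkd (20 mg/kg BID) for 56 days, then cognition tested by Novel Object Recognition.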

Series [2] has as its system ApoE4 and RNA polymerase II binding to the SirT1 promoter. Put plainly: ChIP and real time PCR of SirT1 promoter binding in N2a-E4 cells. The format is cell-based, mouse. The following applies: 6 hour treatment (A03 50 μM), versus DMSO. Here is the method:
Cells were then fixed with formaldehyde, lysed with SDS buffer, and sonicated using a temperature-controlled Epishear sonication platform at −20° C. to obtain DNA fragments between 200-1000 bp. An EZ-ChIP kit (EMD Millipore) was then used for chromatin immunoprecipitation using anti-ApoE4 mAb (Novus Biologicals) and anti-RNA Polymerase II mAb (Millipore) antibodies. After ChIP crosslinks were reversed and purified ChIP DNA was then analyzed by real time quantitative PCR using SYBR green master mix (Thermo) in a CFX Connect Real-Time PCR Detection System (Bio-Rad) using primers to amplify the ApoE4 binding site in the mouse SirT1 promoter: 5′[…]3′ and 5′[…]3′ (amplicon size of 125 bp). The Signals from each sample were normalized with signal of the input followed by the delta-delta-Ct method and fold change calculated with respect to the vehicle (DMSO).

The next series relates to SirT1 mRNA. Put plainly: SirT1 mRNA level in N2a-E4 cells. The series is classed as cell-based, mouse. The following applies: 10 hour time point.
Series [3] relates to SirT1 levels in SH-SY5Y cells. As to the kind of experiment: SirT1 in SH-SY5Y cells transiently transfected with ApoE4. The series is classed as cell-based, human.
Series [4] concerns PRMT8 protein levels in E4-N2a cells. Put plainly: Immunoblot of PRMT8 protein levels in E4-N2a cells. The series is classed as cell-based, murine. Particulars: 10 μM. The source says: (§1) Due both the sequence homology and functional similarity of PRMT family members, in follow-up experiments PRMT 1, 4, and 8 inhibitors as well as assays for inhibition by those PRMTs were used. […] This profile may be due to its binding to an allosteric site on the PRMT8 enzyme and needs further kinetic analysis. […] The mode & inhibition kinetics to be investigated in the renewal grant.

Another series deals with PRMT8 (Homo sapiens, UniProt Q9NR22). Put plainly: Cell-free PRMT enzyme activity assay, PRMT8. The format is biochemical. Particulars: for PRMT8 inhibition: A03 at 5 μM.
PRMT8, sequence (Q9NR22 whole entry, species assumed): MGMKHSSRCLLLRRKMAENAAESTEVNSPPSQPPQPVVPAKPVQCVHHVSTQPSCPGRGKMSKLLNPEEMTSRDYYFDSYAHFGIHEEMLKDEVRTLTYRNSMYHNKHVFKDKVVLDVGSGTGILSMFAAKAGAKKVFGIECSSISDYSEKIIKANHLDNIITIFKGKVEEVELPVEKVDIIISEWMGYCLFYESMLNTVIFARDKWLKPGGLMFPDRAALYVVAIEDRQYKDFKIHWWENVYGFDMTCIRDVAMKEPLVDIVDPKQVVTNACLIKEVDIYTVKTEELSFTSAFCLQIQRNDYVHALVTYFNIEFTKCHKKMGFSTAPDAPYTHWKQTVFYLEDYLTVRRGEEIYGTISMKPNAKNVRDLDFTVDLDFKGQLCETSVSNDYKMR
Description: as §1
Testing of additional A03 analogs are ongoing. For affinity purification, DDL215 that was used through clicking to beads. […] An initial correlation between cell-free PRMT8 inhibition and neuronal SirT1 enhancement (in cells) at 5 μM was seen (FIG. 10B).

A further series deals with PRMT1 (Homo sapiens, UniProt Q99873). As to the kind of experiment: Cell-free PRMT enzyme activity assay, PRMT1. The series is classed as biochemical. The following applies: A03 at 5 μM. The text has this: Due both the sequence homology and functional similarity of PRMT family members, in follow-up experiments PRMT 1, 4, and 8 inhibitors as well as assays for inhibition by those PRMTs were used. […] The mode & inhibition kinetics to be investigated in the renewal grant.
PRMT1, sequence (Q99873 whole entry, species assumed): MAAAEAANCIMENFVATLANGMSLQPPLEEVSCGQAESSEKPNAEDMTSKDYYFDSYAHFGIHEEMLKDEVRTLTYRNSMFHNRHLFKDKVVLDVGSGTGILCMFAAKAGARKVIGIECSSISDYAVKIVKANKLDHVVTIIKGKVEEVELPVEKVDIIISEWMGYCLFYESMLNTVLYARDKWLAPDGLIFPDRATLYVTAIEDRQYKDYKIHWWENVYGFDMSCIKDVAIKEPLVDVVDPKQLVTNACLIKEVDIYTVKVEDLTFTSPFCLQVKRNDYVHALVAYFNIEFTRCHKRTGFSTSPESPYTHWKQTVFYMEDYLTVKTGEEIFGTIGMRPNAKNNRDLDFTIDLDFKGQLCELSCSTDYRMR

A further series deals with T1, PRMT4 (Homo sapiens, UniProt Q86X55).
T1 sequence (Q86X55 1-608): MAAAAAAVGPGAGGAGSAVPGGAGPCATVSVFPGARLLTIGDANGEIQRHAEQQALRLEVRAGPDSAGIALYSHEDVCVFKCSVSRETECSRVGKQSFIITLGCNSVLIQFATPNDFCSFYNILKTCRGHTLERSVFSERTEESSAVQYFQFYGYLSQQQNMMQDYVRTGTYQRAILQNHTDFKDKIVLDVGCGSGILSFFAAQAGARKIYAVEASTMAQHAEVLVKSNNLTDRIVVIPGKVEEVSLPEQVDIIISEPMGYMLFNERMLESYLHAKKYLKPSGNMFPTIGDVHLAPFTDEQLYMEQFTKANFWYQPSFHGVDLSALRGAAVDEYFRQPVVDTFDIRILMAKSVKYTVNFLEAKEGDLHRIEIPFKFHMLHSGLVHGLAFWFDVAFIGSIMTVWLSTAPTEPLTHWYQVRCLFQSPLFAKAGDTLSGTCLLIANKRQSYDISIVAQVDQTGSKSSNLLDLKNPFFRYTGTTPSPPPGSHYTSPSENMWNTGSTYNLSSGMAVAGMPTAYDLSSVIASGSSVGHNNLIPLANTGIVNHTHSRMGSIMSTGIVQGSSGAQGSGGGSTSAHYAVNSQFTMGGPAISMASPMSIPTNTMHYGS
Put plainly: Cell-free PRMT enzyme activity assay, PRMT4. The format is biochemical. Particulars: A03 at 5 μM.
Description: as §1

For the next series, the system named is E4-AD mice. As to the kind of experiment: Oral treatment of ApoE4-expressing AD model mice (NOR, brain SirT1). The series is classed as in vivo, mouse. The following applies: ApoE4:5×FAD-TR transgenic mice. The procedure:
Prompted by the emerging importance of the associations between ApoE4 and the expression/protein levels of SirT1, high-throughput screening (HTS) of the UCLA compound library was performed using AlphaLISA to detect SirT1 levels in murine neuroblastoma cells stably transfected with ApoE4 (E4-N2a) to identify SirT1 enhancers. […] In the in vivo study, mice were treated orally at 40 mkd (20 mg/kg BID) for 56 days and underwent assessment of cognition in the Novel Object Recognition (NOR) testing paradigm.

Consider `CC(N)C(=O)OC(C)(C)Cc1ccc(Cl)cc1` (stereo not drawn) [A03, alaproclate], for which, in [1], the “SirT1 SOμM” value is listed as “C (C = 100% increase versus control)” and the “SirT1 SμM” value was “A (A >20%)”. The EC50 in [1] (Mus musculus, E4-N2a cells, AlphaLISA, read-out: SirT1 increase EC50) is roughly 2300 nM. The SirT1 increase result in series [1] (N2a-E4 cells) is “increased SirT1 in a dose dependent fashion”. Besides, in series [2], the “ApoE4 binding to the SirT1 promoter” value is on record as “pronounced decrease” and the “RNA polymerase binding to the SirT1 promoter” value is listed as “increased binding”. Besides, the PAMPA in “PAMPA” is 3.9 and 4.04. For the same molecule, the “SirT1 mRNA level higher than DMSO control” value in the series with SirT1 mRNA was found to be 12%. Further, the SirT1 increase entry in series [3] is given as “SirT1 increases similar to those seen in the E4-N2a cells”. Moreover, in [4], the PRMT8 protein levels entry is “does not alter PRMT8 protein levels”. Further, the “PRMT8 inhibition, ranking” value at PRMT8 (cell-free assay, 0.25 μM) is reported as “greatest inhibition”. Moreover, at PRMT8 (cell-free assay), the PRMT8 inhibition result is recorded as “inhibit PRMT8”. Besides, the half-inhibitory concentration (IC50) on PRMT8 (cell-free assay, read-out: PRMT8 inhibition IC50) is roughly 125 nM. The “dose at maximum of PRMT8 inhibition dose response” value at PRMT8 (hormetic profile, plateau up to 10 μM) worked out at 0.25 µM. Further, on PRMT1, the PRMT1 inhibition result is “not PRMT1 or 4”. Further, at PRMT4, the PRMT4 inhibition result was “not PRMT1 or 4”.

On to `CC(N)C(=O)OC(C)(C)Cc1ccncc1` (stereo not drawn) [MP48], for which, in [2], the “ApoE4 binding to the SirT1 promoter” value is listed as “decreased ApoE4” and the “RNA polymerase binding to the SirT1 promoter” value is on record as “increased RNA polymerase binding”. Also, the “SirT1 mRNA levels in the brain” value in the series on E4-AD mice was “increase SirT1 mRNA levels”.

With `CC(C)Oc1ccc(-c2c[nH]cc2CN(C)CCN)cc1` [MS23], the PRMT8 inhibition entry at PRMT8 (cell-free assay) is recorded as “inhibits all 3 enzymes”. Also, the PRMT4 inhibition entry on PRMT4 is listed as “inhibits all 3 enzymes”.
